According to patent US20240335431A1, “1-H-PYRROLO[2,3-c]PYRIDINE COMPOUNDS” (Acerta Pharma B.V., priority 2023, published 2024):
Where two headings read alike, the source gives them in different places.

Tests used:
MV4;11 cells = assay: Proliferation assay, MV4;11 (CellTiter-Glo, 7 days); assay type: cell-based, human; conditions: read-out: MV-4-11 IC50
Outline: (§1)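 Cells were seeded at line-specific low densities for linear growth, exposed to 3.16-fold serial compound dilutions at 0.1% DMSO, and incubated 7 days at 37 °C, 5% CO2. Viability was read by CellTiter-Glo 2.0 luminescence; IC50 came from one-site fits of % inhibition, normalized between DMSO-treated cells (100%) and a day-0 plate (0%).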

HEL cells = assay: Proliferation assay, HEL control cell line (CellTiter-Glo, 7 days); assay type: cell-based, human
Outline: as §1

[1] = Human liver microsomes (HLMs) intrinsic clearance assay; assay type: in vitro ADME
[2] = human, microsomes, pH 7.4, HLM CLint
[3] = human, microsomes, 1 µM, pH 7.4

COCCN(C)CCC[C@H](C(C)C)N1CCC(C(=O)c2cn(-c3ccc(F)cc3C(=O)N(C(C)C)C(C)C)c3cnccc23)CC1 (racemic) [Example 23, rac-(R)-5-Fluoro-N,N-diisopropyl-2-(3-(1-(6-((2-methoxyethyl)(methyl)amino)-2-methylhexan-3-yl)piperidine-4-carbonyl)-1H-pyrrolo[2,3-c]pyridin-1-yl)benzamide]
IC50 (MV4;11 cells; Homo sapiens, MV4-11, 168 h): 20 nM | IC50 (HEL cells; Homo sapiens, HEL, 168 h): > 10000 nM | microsomal CLint at 1 µM [1, 2]: 156 µL/min/mg

CC(C)N(C(=O)c1cc(F)ccc1-n1cc(C(=O)C2CCN(C(=O)[C@H]3NC[C@@H]4CC[C@@H]43)CC2)c2ccncc21)C(C)C (relative stereo) [Example 25, rel-2-(3-(1-((1R,2R,5S)-3-Azabicyclo[3.2.0]heptane-2-carbonyl)piperidine-4-carbonyl)-1H-pyrrolo[2,3-c]pyridin-1-yl)-5-fluoro-N,N-diisopropylbenzamide]
IC50 (MV4;11 cells; Homo sapiens, MV4-11, 168 h): 24 nM | IC50 (HEL cells; Homo sapiens, HEL, 168 h): > 10000 nM | microsomal CLint at 1 µM [1, 2]: 94 µL/min/mg

Cc1c(C(=O)C2CCN(C(=O)[C@@H]3CCC(C)(C)N3)CC2)c2ccncc2n1-c1ccc(F)cc1C(=O)N(C(C)C)C(C)C (single isomer, unassigned) [Compound 56-2]
IC50 (MV4;11 cells; Homo sapiens, MV4-11, 168 h): 35 nM | IC50 (HEL cells): > 10000 nM | HLM CLint [1, 3]: 91 µL/min/mg

CCN(C(=O)c1cc(F)ccc1-n1c(C)c(C(=O)C2CCN(C(=O)[C@H]3NC[C@@H]4C[C@@H]43)CC2)c2ccncc21)C(C)C (single isomer, unassigned) [Example 48-1]
IC50 (HEL cells): > 10000 nM | HLM CLint [1, 3]: 69 µL/min/mg

CCN(C(=O)c1cc(F)ccc1-n1c(C)c(C(=O)C2CCN(C(=O)[C@H]3NC[C@@H]4C[C@@H]43)CC2)c2ccncc21)C(C)C (single isomer, unassigned) [Example 48-2]
IC50 (MV4;11 cells): 29 nM | IC50 (HEL cells): > 10000 nM | HLM CLint [1, 3]: 55 µL/min/mg

CCN(C(=O)c1cc(F)ccc1-n1c(C)c(C(=O)C2CCN(C(=O)[C@@H]3CCC4(CC4)N3)CC2)c2ccncc21)C(C)C (single isomer, unassigned) [Example 49-2]
IC50 (MV4;11 cells): 34 nM | IC50 (HEL cells): > 10000 nM | HLM CLint ([1]; 1 mg/mL HLM, NADPH): 127 µL/min/mg

CCN(C(=O)c1cc(F)ccc1-n1c(C)c(C(=O)C2CCN(C(=O)[C@@H]3CCC(C)(C)N3)CC2)c2ccncc21)C(C)C (single isomer, unassigned) [Example 50-2]
IC50 (MV4;11 cells; Homo sapiens, MV4-11, 168 h): 39 nM | IC50 (HEL cells): > 10000 nM | HLM CLint [1, 3]: 48 µL/min/mg

Cc1c(C(=O)C2CCN(C(=O)[C@H]3NC[C@@H]4C[C@@H]43)CC2)c2ccncc2n1-c1ccc(F)cc1C(=O)N(CC(F)(F)F)C(C)C (single isomer, unassigned) [Example 51-1]
IC50 (HEL cells; Homo sapiens, HEL, 168 h): > 10000 nM | microsomal CLint at 1 µM [1, 2]: 54 µL/min/mg

Cc1c(C(=O)C2CCN(C(=O)[C@H]3NC[C@@H]4C[C@@H]43)CC2)c2ccncc2n1-c1ccc(F)cc1C(=O)N(CC(F)(F)F)C(C)C (single isomer, unassigned) [Example 51-2]
IC50 (MV4;11 cells; Homo sapiens, MV4-11, 168 h): 29 nM | IC50 (HEL cells): > 10000 nM | HLM CLint [1, 3]: 52 µL/min/mg

CCN(C(=O)c1cc(F)ccc1-n1c(C)c(C(=O)[C@@H]2CCN(C(=O)[C@@H]3CCC4(CC4)N3)[C@@H](C)C2)c2ccncc21)C(C)C (single isomer, unassigned) [Example 52-1, N-Ethyl-5-fluoro-N-isopropyl-2-(2-methyl-3-((2R*,4S*)-2-methyl-1-((S)-4-azaspiro[2.4]heptane-5-carbonyl)piperidine-4-carbonyl)-1H-pyrrolo[2,3-c]pyridin-1-yl)benzamide]
IC50 (MV4;11 cells): 22 nM | microsomal CLint at 1 µM ([1]; human, microsomes, pH 7.4, 1 mg/mL HLM, NADPH, read-out: HLM CLint): 150 µL/min/mg

CCN(C(=O)c1cc(F)ccc1-n1c(C)c(C(=O)[C@@H]2CCN(C(=O)[C@@H]3CCC4(CC4)N3)[C@@H](C)C2)c2ccncc21)C(C)C (single isomer, unassigned) [Example 52-2, N-Ethyl-5-fluoro-N-isopropyl-2-(2-methyl-3-((2R*,4S*)-2-methyl-1-((S)-4-azaspiro[2.4]heptane-5-carbonyl)piperidine-4-carbonyl)-1H-pyrrolo[2,3-c]pyridin-1-yl)benzamide]
IC50 (MV4;11 cells): 56 nM | IC50 (HEL cells; Homo sapiens, HEL, 168 h): > 10000 nM | HLM CLint ([1]; 1 mg/mL HLM, NADPH): 150 µL/min/mg

Cc1c(C(=O)C2CCN(C(=O)[C@@H]3CCC(C)(C)N3)CC2)c2ccncc2n1-c1ccc(F)cc1C(=O)N(C(C)C)C(C)C (single isomer, unassigned) [Example 56-1]
IC50 (HEL cells; Homo sapiens, HEL, 168 h): > 10000 nM | microsomal CLint at 1 µM [1, 2]: 133 µL/min/mg

Cc1c(C(=O)[C@@H]2CCN(C(=O)[C@@H]3CC[C@H](C)N3)[C@@H](C)C2)c2ccncc2n1-c1ccc(F)cc1C(=O)N(C(C)C)C(C)C (stereo in doubt) [Example 62, 5-Fluoro-N,N-diisopropyl-2-(2-methyl-3-((2S,4RS)-2-methyl-1-((2S,5S)-5-methylpyrrolidine-2-carbonyl)piperidine-4-carbonyl)-1H-pyrrolo[2,3-c]pyridin-1-yl)benzamide]
IC50 (HEL cells; Homo sapiens, HEL, 168 h): > 10000 nM | microsomal CLint at 1 µM [1, 2]: 12 µL/min/mg

CCN(C(=O)c1cc(F)ccc1-n1c(C)c(C(=O)[C@@H]2CCN(C(=O)[C@@H]3CC[C@H](C)N3)[C@@H](C)C2)c2ccncc21)C(C)C (stereo in doubt) [Example 63, N-Ethyl-5-fluoro-N-isopropyl-2-(2-methyl-3-((2S,4RS)-2-methyl-1-((2S,5S)-5-methylpyrrolidine-2-carbonyl)piperidine-4-carbonyl)-1H-pyrrolo[2,3-c]pyridine-1-yl)benzamide]
IC50 (HEL cells; Homo sapiens, HEL, 168 h): > 10000 nM | microsomal CLint at 1 µM [1, 2]: 63 µL/min/mg

Cc1c(C(=O)[C@@H]2CCN(C(=O)[C@@H]3CC[C@@H](C)N3)[C@@H](C)C2)c2ccncc2n1-c1ccc(F)cc1C(=O)N(C(C)C)C(C)C (stereo in doubt) [Example 64, 5-Fluoro-N,N-diisopropyl-2-(2-methyl-3-((2S,4RS)-2-methyl-1-((2S,5R)-5-methylpyrrolidine-2-carbonyl)piperidine-4-carbonyl)-1H-pyrrolo[2,3-c]pyridin-1-yl)benzamide]
IC50 (HEL cells; Homo sapiens, HEL, 168 h): > 10000 nM | microsomal CLint at 1 µM [1, 2]: 88 µL/min/mg

CCN(C(=O)c1cc(F)ccc1-n1c(C)c(C(=O)[C@@H]2CCN(C(=O)[C@@H]3CC[C@@H](C)N3)[C@@H](C)C2)c2ccncc21)C(C)C (stereo in doubt) [Example 65, N-Ethyl-5-fluoro-N-isopropyl-2-(2-methyl-3-((2S,4RS)-2-methyl-1-((2S,5R)-5-methylpyrrolidine-2-carbonyl)piperidine-4-carbonyl)-1H-pyrrolo[2,3-c]pyridin-1-yl)benzamide]
IC50 (HEL cells; Homo sapiens, HEL, 168 h): > 10000 nM | microsomal CLint at 1 µM [1, 2]: 55 µL/min/mg

CC(C)c1ncsc1-c1cc(F)ccc1-n1cc(C(=O)C2CN(C(=O)[C@H]3N[C@@H]4CC[C@H]3C4)C2)c2ccncc21.O=CO [Example 12, (1-((1R,3S,4S)-2-Azabicyclo[2.2.1]heptane-3-carbonyl)azetidin-3-yl)(1-(4-fluoro-2-(4-isopropylthiazol-5-yl)phenyl)-1H-pyrrolo[2,3-c]pyridin-3-yl)methanone 1·formic acid]
IC50 (HEL cells; Homo sapiens, HEL, 168 h): > 10000 nM | microsomal CLint at 1 µM [1, 2]: 216 µL/min/mg

CC(C)c1ccncc1-c1cc(F)ccc1-n1cc(C(=O)C2CCN(C(=O)[C@H]3N[C@@H]4CC[C@H]3C4)CC2)c2ccncc21 [Example 41, (1-((1R,3S,4S)-2-Azabicyclo[2.2.1]heptane-3-carbonyl)piperidin-4-yl)(1-(4-fluoro-2-(4-isopropylpyridin-3-yl)phenyl)-1H-pyrrolo[2,3-c]pyridin-3-yl)methanone]
IC50 (HEL cells; Homo sapiens, HEL, 168 h): > 10000 nM | microsomal CLint at 1 µM [1, 2]: 180 µL/min/mg
